Values quoted from earlier work in patent US20120258914A1, “COACERVATION PROCESS” (Alkermes, Inc., priority 2007, published 2012).

Substance: exendin-4
- secretion of insulin (in the presence of elevated blood glucose concentrations, but not during hypoglycemia): stimulate secretion of insulin
- food intake and body weight (in vivo): affect food intake and body weight
- gastric emptying (in vivo): slow gastric emptying
- glucagon secretion (in vivo): suppress glucagon secretion
